Data published in patent publication US20230099739A1, “JAK KINASE INHIBITOR AND PREPARATION AND APPLICATION THEREOF” (MINGHUI PHARMACEUTICAL (SHANGHAI) LIMITED, priority 2020, published 2023).

What was measured:
TYK2 = TYK2 (Homo sapiens, UniProt P29597); assay: Caliper mobility shift kinase assay, TYK2; format: biochemical; details: 1 mM ATP concentration
Method: (§1) The in vitro inhibitory effect of compounds on JAK1, JAK2, JAK3 or TYK2 kinase was detected by Caliper mobility shift assay. Compounds to be tested were dissolved in DMSO, and prepared into 10 mM stock solutions. Stock solutions of the compounds were prepared into 50× working solutions (10 concentrations in total) through gradient dilution using DMSO, and each concentration of working solution was transferred to an Echo® master plate. The Echo® non-contact nanoliter sonic pipetting system was used to transfer […] of compound solution or DMSO of the corresponding concentration from the master plate to the 384-well reaction plate. Then, 10 μL of 2.5× kinase solution was added to the 384-well reaction plate. After 10 minutes of incubation at room temperature, 10 μL of mixed solution of 2.5×FAM-labeled polypeptide and ATP (final ATP concentration was 1 mM) was added. 30 μL of stop reagent was added, detected on Caliper, and the conversion value was calculated, i.e. the height of the product peak divided by the sum of the heights of the substrate and product peaks. […] Percent inhibition=(max−conversion)/(max−min)×100, wherein “max” represents the conversion reading for the DMSO control and “min” represents the conversion reading for the low value control.

Ba/F3-TEL-JAK2 cells = assay: CellTiter-Glo proliferation of Ba/F3-TEL-JAK2 cells; format: cell-based; details: Mus musculus, murine B lymphocyte BaF3 with TEL-human JAK2 kinase domain
Source text: (§2) In murine B lymphocytes BaF3, recombinant genes (including TEL and human JAK1, TYK2, JAK2, JAK3 kinase domains) were transferred by using genetic engineering technology, in which TEL could promote phosphorylation of TEL-JAK1 or TEL-TYK2 kinase dimer and continuously activate, thus allowing cells to grow dependent on the activity of this recombinant kinase. […] CellTiter-Glo method was used to detect the proliferation of genetically engineered cell lines Ba/F3-TEL-JAK1, Ba/F3-TEL-TYK2, Ba/F3-TEL-JAK2, and Ba/F3-TEL-JAK3 which was cultured in vitro. Graphpad 7.0 was used to fit curves and IC 50 values were calculated.

JAK2 = JAK2 (Homo sapiens, UniProt O60674); assay: Caliper mobility shift kinase assay, JAK2; format: biochemical; details: 1 mM ATP concentration
Method: as §1

JAK3 = target: T1, JAK3 (Homo sapiens, UniProt P52333); assay: Caliper mobility shift kinase assay, JAK3; format: biochemical; details: 1 mM ATP concentration
T1 sequence (P52333 1-1124): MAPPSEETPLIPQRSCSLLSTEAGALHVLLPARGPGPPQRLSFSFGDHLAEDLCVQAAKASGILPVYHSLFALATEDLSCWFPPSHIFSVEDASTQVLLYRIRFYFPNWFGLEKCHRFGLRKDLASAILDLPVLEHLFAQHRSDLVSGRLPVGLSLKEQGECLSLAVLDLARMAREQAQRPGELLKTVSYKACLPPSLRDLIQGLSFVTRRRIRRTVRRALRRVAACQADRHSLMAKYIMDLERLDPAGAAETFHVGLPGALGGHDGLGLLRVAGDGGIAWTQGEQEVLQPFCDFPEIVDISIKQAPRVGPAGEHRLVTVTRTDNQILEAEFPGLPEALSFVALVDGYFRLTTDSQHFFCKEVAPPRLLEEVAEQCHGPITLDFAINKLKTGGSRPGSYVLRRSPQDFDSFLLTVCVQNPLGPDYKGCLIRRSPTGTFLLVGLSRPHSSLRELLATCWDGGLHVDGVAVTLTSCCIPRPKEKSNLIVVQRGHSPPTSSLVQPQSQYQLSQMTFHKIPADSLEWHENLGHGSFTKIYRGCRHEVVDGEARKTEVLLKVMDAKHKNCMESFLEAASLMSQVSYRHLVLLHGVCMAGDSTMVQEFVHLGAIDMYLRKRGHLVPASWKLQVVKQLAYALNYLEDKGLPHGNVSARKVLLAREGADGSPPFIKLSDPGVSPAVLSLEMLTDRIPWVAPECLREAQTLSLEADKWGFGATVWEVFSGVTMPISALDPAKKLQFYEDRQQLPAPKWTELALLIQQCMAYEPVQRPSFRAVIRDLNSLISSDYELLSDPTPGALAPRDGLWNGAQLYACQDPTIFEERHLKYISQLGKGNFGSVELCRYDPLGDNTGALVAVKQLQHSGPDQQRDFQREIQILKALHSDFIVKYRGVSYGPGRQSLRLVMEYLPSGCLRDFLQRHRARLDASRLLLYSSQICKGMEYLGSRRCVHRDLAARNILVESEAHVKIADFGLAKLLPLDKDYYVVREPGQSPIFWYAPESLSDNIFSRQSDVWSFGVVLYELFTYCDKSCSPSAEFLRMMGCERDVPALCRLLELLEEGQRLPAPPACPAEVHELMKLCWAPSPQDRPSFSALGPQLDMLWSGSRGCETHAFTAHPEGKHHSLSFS
Method: as §1

Ba/F3-TEL-TYK2 cells = assay: CellTiter-Glo proliferation of Ba/F3-TEL-TYK2 cells; format: cell-based; details: Mus musculus, murine B lymphocyte BaF3 with TEL-human TYK2 kinase domain
Source text: as §2

Ba/F3-TEL-JAK1 cells = assay: CellTiter-Glo proliferation of Ba/F3-TEL-JAK1 cells; format: cell-based; details: Mus musculus, murine B lymphocyte BaF3 with TEL-human JAK1 kinase domain
Source text: as §2

Ba/F3-TEL-JAK3 cells = assay: CellTiter-Glo proliferation of Ba/F3-TEL-JAK3 cells; format: cell-based; details: Mus musculus, murine B lymphocyte BaF3 with TEL-human JAK3 kinase domain
Source text: as §2

JAK1 = JAK1 (Homo sapiens, UniProt P23458); assay: Caliper mobility shift kinase assay, JAK1; format: biochemical; details: 1 mM ATP concentration
Method: as §1

JAK1, sequence (P23458 whole entry): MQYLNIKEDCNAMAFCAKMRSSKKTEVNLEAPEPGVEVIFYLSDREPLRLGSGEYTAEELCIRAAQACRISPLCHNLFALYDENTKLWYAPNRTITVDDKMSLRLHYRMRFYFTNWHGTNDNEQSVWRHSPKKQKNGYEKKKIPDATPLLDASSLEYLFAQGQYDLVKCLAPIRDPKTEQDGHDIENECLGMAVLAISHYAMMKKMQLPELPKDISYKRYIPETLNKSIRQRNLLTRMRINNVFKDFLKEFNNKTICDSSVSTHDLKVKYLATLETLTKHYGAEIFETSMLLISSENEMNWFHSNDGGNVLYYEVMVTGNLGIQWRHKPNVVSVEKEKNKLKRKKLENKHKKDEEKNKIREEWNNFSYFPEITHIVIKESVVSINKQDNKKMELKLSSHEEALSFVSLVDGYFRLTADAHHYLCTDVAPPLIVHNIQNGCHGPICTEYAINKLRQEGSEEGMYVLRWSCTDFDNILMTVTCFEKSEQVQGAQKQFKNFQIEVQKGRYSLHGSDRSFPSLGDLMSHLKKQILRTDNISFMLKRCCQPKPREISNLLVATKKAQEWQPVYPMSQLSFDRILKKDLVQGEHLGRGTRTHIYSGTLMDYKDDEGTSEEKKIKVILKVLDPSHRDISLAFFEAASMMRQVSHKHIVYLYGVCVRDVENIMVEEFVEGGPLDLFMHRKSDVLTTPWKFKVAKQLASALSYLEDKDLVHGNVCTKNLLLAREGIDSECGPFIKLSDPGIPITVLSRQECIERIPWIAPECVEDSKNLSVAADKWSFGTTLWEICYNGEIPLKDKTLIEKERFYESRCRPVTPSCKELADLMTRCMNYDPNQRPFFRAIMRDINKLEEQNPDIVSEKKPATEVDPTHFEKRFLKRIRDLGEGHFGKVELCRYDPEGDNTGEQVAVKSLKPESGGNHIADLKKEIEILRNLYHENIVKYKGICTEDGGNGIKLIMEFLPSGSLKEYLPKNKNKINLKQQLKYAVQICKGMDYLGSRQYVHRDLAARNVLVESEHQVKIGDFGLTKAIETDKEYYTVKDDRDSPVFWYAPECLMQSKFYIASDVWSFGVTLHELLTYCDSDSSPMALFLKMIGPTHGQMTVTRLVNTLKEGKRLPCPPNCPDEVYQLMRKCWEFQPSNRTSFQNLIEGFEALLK
TYK2, sequence (P29597 whole entry): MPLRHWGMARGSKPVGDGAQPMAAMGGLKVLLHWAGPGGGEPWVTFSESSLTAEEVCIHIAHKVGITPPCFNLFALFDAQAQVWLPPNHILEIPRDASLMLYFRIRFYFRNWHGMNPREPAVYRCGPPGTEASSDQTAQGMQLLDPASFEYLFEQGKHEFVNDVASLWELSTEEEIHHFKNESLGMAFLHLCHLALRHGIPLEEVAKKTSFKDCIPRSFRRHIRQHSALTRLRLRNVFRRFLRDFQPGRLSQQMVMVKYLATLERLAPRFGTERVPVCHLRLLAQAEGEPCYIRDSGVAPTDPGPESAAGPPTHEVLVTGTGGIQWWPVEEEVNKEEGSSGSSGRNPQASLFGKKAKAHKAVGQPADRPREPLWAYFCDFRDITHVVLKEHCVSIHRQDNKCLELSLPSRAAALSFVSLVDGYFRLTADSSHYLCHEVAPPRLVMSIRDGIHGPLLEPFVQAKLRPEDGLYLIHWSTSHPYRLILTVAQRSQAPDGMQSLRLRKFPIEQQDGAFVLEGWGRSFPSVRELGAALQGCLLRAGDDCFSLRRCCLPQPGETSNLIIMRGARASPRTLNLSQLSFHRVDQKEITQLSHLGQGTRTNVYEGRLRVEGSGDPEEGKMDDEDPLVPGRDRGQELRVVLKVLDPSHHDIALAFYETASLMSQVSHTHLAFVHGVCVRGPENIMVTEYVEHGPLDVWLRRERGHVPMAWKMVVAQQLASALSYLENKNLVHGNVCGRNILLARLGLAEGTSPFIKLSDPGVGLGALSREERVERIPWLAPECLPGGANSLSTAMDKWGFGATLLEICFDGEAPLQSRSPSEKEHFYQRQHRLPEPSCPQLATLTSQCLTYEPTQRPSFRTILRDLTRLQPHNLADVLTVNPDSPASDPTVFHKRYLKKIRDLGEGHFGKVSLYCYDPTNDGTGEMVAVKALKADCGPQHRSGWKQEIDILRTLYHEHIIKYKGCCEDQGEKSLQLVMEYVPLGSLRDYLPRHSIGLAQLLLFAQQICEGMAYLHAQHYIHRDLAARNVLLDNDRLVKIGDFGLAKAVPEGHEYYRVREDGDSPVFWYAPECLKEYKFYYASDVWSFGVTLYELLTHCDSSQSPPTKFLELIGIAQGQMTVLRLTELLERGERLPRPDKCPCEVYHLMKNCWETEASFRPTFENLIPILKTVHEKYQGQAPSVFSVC
JAK2, sequence (O60674 whole entry): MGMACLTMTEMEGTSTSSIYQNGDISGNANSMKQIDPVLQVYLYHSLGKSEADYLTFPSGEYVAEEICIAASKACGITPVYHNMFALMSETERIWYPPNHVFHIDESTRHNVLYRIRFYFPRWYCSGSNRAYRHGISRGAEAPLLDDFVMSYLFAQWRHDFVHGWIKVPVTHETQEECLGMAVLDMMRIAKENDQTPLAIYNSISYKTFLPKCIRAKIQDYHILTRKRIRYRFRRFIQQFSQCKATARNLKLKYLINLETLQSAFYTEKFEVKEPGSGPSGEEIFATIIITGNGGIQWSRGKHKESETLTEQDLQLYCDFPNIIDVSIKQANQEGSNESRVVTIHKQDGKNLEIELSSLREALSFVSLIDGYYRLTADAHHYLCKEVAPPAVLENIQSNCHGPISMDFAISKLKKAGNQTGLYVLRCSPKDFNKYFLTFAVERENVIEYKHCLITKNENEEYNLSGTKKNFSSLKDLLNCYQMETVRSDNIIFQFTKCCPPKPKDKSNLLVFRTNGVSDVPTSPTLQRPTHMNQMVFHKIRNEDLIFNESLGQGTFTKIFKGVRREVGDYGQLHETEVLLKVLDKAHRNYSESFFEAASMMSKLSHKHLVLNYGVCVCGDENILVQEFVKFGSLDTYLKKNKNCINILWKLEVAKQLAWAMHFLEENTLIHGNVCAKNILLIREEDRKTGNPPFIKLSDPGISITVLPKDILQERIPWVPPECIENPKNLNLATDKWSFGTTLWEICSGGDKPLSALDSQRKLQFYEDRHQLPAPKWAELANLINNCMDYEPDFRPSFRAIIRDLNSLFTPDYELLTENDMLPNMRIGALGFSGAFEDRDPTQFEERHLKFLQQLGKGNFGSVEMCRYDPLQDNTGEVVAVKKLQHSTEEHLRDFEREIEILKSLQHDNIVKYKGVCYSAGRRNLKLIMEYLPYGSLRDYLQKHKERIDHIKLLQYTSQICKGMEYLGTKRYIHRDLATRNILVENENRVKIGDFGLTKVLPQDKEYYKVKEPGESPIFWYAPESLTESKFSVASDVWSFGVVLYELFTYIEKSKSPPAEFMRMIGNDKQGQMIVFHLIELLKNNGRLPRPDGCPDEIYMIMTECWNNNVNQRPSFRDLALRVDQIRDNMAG

Compound | IC50 (TYK2) [nM] | IC50 (Ba/F3-TEL-JAK2 cells) [nM] | IC50 (JAK2) [nM] | IC50 (JAK3) [nM] | IC50 (Ba/F3-TEL-TYK2 cells) [nM] | IC50 (Ba/F3-TEL-JAK1 cells) [nM] | IC50 (Ba/F3-TEL-JAK3 cells) [nM] | IC50 (JAK1) [nM]
Cn1cc(Nc2nccc(N3CC4CSC(C3)N4C(=O)[C@@H]3CC3(F)F)n2)cn1 (stereo partly shown) [Example 1] | 4.2 | 87 | 27 | 3470 | 111 | 31 | 3690 | 32
O=C([C@@H]1CC1(F)F)N1[C@H]2CS[C@@H]1CN(c1ccnc(Nc3cnn(C4(CO)CC4)c3)n1)C2 [Example 3] | 2.9 | 427 | – | – | 556 | 56 | > 10000 | 107
O=C([C@@H]1CC1(F)F)N1[C@H]2CS[C@@H]1CN(c1ccnc(Nc3cnn(CCO)c3)n1)C2 [Example 2] | 1.7 | 173 | 1.4 | 2270 | 192 | 314 | 8640 | 10
